From patent publication US11148991B2, “5-bromo-2-(alpha-hydroxypentyl)benzoic acid sodium salts in different crystal forms, and preparation method thereof” (priority 2013, dated 2021)

Experiments:
[1] = Solubility in water and methanol; type: physicochemical; details: sodium salt
[2] = Stability in water and methanol solution; type: physicochemical; details: sodium salt
rat MCAO model = assay: Brain infarction volume and brain edema volume in rats with local brain ischemia (MCAO model); type: in vivo, Wistar rats
Source text: Wistar rats (50% of rats is female and another 50% of rats is male); 5-bromo-2-(α-hydroxypentyl)benzoic acid sodium salt (BZP, in the form of amorphous form, crystal form A and crystal form B, prepared according to the present invention), prepared in double distilled water; […] is in the form of white powder, manufactured by Beijing Chemical Works.
Administration method: 5-bromo-2-(α-hydroxypentyl)benzoic acid sodium salt (BZP) was intravenously injected at one hour before MCAO, with the dosage of 12 mg/kg; 5-bromo-2-(α-hydroxypentyl)benzoic acid sodium salt (BZP) was used to intragastric administration at one hour before MCAO, with the dosage of 20 mg/kg. 2-(α-hydroxypentyl)benzoic acid potassium salt (NBP-K) was used as positive control, and its dosage (calculated in moles) is the same as that of 5-bromo-2-(α-hydroxypentyl)benzoic acid sodium salt, that is, the dosage of intravenous injection is 9.6 mg/kg, and the dosage of intragastric administration is 15.9 mg/kg.
Preparation of MCAO model: Establish a focal brain ischemia-reperfusion injury model by cerebral artery obstruction in rats with suture-occluded method. Rats were intraperitoneally injected with 10% chloral hydrate to anesthetize. Rats were fixed on back and the skin of neck center was incised. The left common carotid artery, external carotid artery, and internal carotid artery were subjected to blunt dissection. The pterygopalatine artery was ligated, only remaining cranial trunk of internal carotid artery; a prepared nylon rope (burning diameter 0.3 mm) was inserted via external carotid artery incision into the bifurcation of the […], and was pushed along the cranial direction of the internal carotid artery. […] This indicates one side of the middle cerebral artery occlusion model was completed. Sutured the incision, remained the end of nylon line out of the skin. For reperfusion, the nylon line was gently pulled out. If feel force of resistance, this indicates the end of nylon line has returned to the trunk of external carotid artery, thereby accomplishing reperfusion.
Determination of infarction volume: After being subjected to ischemia for 2 hours and reperfusion for 24 hours, the heads of rats were cut off. Forebrain was removed and cut into six pieces, each piece being 2 mm. The pieces were stained with TC, and incubated at 37° C. for 30 minutes. Normal issues were stained to be red, but the infarcted issues were stained to be white. Took photos with digital camera, and calculated the percentage of the infarcted area relative to the spherical area of brain by Photoshop.

[3] = Acute toxicity (LD50), mouse; details: in vivo
[4] = Acute toxicity (LD50), rat; details: in vivo
Rat = assay: Sub-acute toxicity, rat
[5] = intragastric administration one hour before MCAO, BZP 20 mg/kg, NBP-K 15.9 mg/kg, sodium salt
[6] = intravenous injection one hour before MCAO, 12 mg/kg, sodium salt, 12 mg/kg
[7] = intravenous injection one hour before MCAO, BZP 12 mg/kg, NBP-K 9.6 mg/kg, ischemia 2 hours, reperfusion 24 hours, sodium salt
[8] = intravenous injection one hour before MCAO, BZP 12 mg/kg, NBP-K 9.6 mg/kg, sodium salt
[9] = intragastric administration one hour before MCAO, BZP 20 mg/kg, NBP-K 15.9 mg/kg
[10] = intravenous injection one hour before MCAO, 12 mg/kg

For CCCCC(O)c1ccc(Br)cc1C(=O)[O-].[Na+] (mixture of isomers) [BZP (mixture), 5-bromo-2-(α-hydroxypentyl)benzoic acid sodium salt, reference compound], which “Solubility in methanol” value [1] is on record?
The value was 1580 mg/mL.

What about the “Solubility in water” value [1] of the same compound?
Its value is 2130 mg/mL.

What about the “Stability” value ([2]; in methanol solution) of the same compound?
Its value is >12 h.

And the “Stability” value ([2]; in water)?
Its value is >12 h.

With CCCCC(O)c1ccc(Br)cc1C(=O)[O-].[Na+] (stereo not drawn) [5-bromo-2-(α-hydroxypentyl)benzoic acid sodium salt] as the compound, how does the “Activity compared with 2-(α-hydroxypentyl)benzoic acid potassium salt” value (rat MCAO model; at the same dosage, conclusion in words) read?
The value was “obviously better than 2-(α-hydroxypentyl)benzoic acid potassium salt”.

And the “Effect on brain tissue injury induced by obstruction of cerebral arteries” value (rat MCAO model; rats, conclusion in words)?
Its value is “can obviously reduce brain tissue injury induced by obstruction of cerebral arteries”.

For CCCCC(O)c1ccc(Br)cc1C(=O)[O-].[Na+] (stereo not drawn) [BZP (crystal form A), 5-bromo-2-(α-hydroxypentyl)benzoic acid sodium salt], which “Solubility in methanol” value ([1]; listed as BZP (Form A)) is on record?
The value was 1800 mg/mL.

What about the “Solubility in water” value ([1]; listed as BZP (Form A)) of the same compound?
Its value is 2360 mg/mL.

And the “Edema (%)” value (rat MCAO model; [5])?
The value was 2.7 ± 1.30^aa** %.

And the “Infarction volume (%)” value (rat MCAO model; [5])?
Its value is 7.13 ± 2.98 aa %.

What about the “Inhibition of edema (%)” value (rat MCAO model; [5]) of the same compound?
Its value is 87.55%.

What about the “Inhibition of infarction volume (%)” value (rat MCAO model; [5]) of the same compound?
The value was 86.65%.

And the “Edema (%)” value (rat MCAO model; [6])?
Its value is 3.24 ± 4.11^aa* %.

And the “Inhibition of edema (%)” value (rat MCAO model; [6])?
Its value is 81.28%.

What about the “Infarction volume (%)” value (rat MCAO model; [7]) of the same compound?
Its value is 4.54 ± 1.73 aa %.

And the “Inhibition of infarction volume (%)” value (rat MCAO model; [8])?
Its value is 91.50%.

What about the “Stability” value ([2]; in methanol solution, listed as BZP (Form A)) of the same compound?
Its value is >24 h.

And the “Stability” value ([2]; in water, listed as BZP (Form A))?
Its value is >20 h.

What does the source list for CCCCC(O)c1ccc(Br)cc1C(=O)[O-].[Na+] (stereo not drawn) [BZP (crystal form B), 5-bromo-2-(α-hydroxypentyl)benzoic acid sodium salt]?
Solubility in methanol ([1]; listed as BZP (Form B)): 1630 mg/mL; Solubility in water ([1]; listed as BZP (Form B)): 2430 mg/mL; Edema (%) (rat MCAO model; [5]): 2.87 ± 1.56^aa** %; Infarction volume (%) (rat MCAO model; [5]): 7.13 ± 2.98^aa** %; Inhibition of edema (%) (rat MCAO model; [5]): 85.09%; Inhibition of infarction volume (%) (rat MCAO model; [5]): 86.03%; Edema (%) (rat MCAO model; [6]): 4.20 ± 2.03a %; Inhibition of edema (%) (rat MCAO model; [6]): 78.71%; Infarction volume (%) (rat MCAO model; [7]): 4.76 ± 1.45 aa %; Inhibition of infarction volume (%) (rat MCAO model; [8]): 91.09%; Stability ([2]; in methanol solution, listed as BZP (Form B)): >24 h; Stability ([2]; in water, listed as BZP (Form B)): >24 h

What does the source list for CCCCC(O)c1ccccc1C(=O)[O-].[K+] (stereo not drawn) [NBP-K, 2-(α-hydroxypentyl)benzoic acid potassium salt, reference compound]?
Edema (%) (rat MCAO model; [9]): 11.04 ± 1.48^aa** %; Infarction volume (%) (rat MCAO model; [9]): 22.28 ± 2.65^aa %; Inhibition of edema (%) (rat MCAO model; [9]): 42.65%; Inhibition of infarction volume (%) (rat MCAO model; [9]): 58.3%; Edema (%) (rat MCAO model; [10]): 12.38 ± 1.29%; Inhibition of edema (%) (rat MCAO model; [10]): 9.37%; Inhibition of infarction volume (%) (rat MCAO model; intravenous injection one hour before MCAO, BZP 12 mg/kg, NBP-K 9.6 mg/kg): 54.42%; Infarction volume (%) (rat MCAO model; intravenous injection one hour before MCAO, BZP 12 mg/kg, NBP-K 9.6 mg/kg, ischemia 2 hours, reperfusion 24 hours): 24.35 ± 4.32^aa %; LD50 ([3]; iv): 303 mg/kg; LD50 ([3]; po): 880 mg/kg; LD50 ([4]; iv): 230 mg/kg; LD50 ([4]; po): 623 mg/kg; Sub-acute (Rat; ig): >20 mg/kg; Sub-acute (Rat; iv): >12 mg/kg
